Laboratory results: US9290478B2, “Substituted quinoxalines as FGFR kinase inhibitors” (ASTEX THERAPEUTICS LTD, priority 2010, dated 2016)

What was measured:
Format in all cases: biochemical
KDR (h) (VEGFR2) = KDR (h) (VEGFR2) (Homo sapiens, UniProt P35968); assay: KDR (VEGFR2) (enzymatic assay), TR-FRET; conditions: 3 μM ATP; for IC50: read-out: VEGFR2 (KDR) pIC50 (converted)
Procedure: KDR (VEGFR2) (Enzymatic Assay)
(§1) In a final reaction volume of 30 μL, KDR (h) (150 ng/ml) was incubated with 50 mM HEPES pH 7.5, 6 mM MnCl2, 1 mM DTT, 0.1 mM Na3VO4, 0.01% Triton-X-100, 500 nM Btn-Flt3 and 3 μM ATP in the presence of compound (1% DMSO final). After incubation for 120 minutes at room temperature the reaction was stopped with 2.27 nM EU-anti P-Tyr, 7 mM EDTA, 31.25 nM SA-XL-665 and 0.02% BSA which was present for 60 minutes at room temperature. Time-Resolved Fluorescence Resonance Energy Transfer (TR-FRET) signal (ex340 nm. Em 620 nm, em 655 nm) was measured afterwards and results are expressed in RFU (Relative Fluorescence Units). In this assay, the inhibitory effect of different compound concentrations (range 10 μM to 0.1 nM) was determined and used to calculate an IC50 (M) and pIC50 (−log IC50) value.

FGFR2 (h) = FGFR2 (h) (Homo sapiens, UniProt P21802); assay: FGFR2 (enzymatic assay), TR-FRET; conditions: 0.4 μM ATP; read-out: FGFR2 pIC50 (converted)
FGFR2 (h), sequence (P21802 22-821): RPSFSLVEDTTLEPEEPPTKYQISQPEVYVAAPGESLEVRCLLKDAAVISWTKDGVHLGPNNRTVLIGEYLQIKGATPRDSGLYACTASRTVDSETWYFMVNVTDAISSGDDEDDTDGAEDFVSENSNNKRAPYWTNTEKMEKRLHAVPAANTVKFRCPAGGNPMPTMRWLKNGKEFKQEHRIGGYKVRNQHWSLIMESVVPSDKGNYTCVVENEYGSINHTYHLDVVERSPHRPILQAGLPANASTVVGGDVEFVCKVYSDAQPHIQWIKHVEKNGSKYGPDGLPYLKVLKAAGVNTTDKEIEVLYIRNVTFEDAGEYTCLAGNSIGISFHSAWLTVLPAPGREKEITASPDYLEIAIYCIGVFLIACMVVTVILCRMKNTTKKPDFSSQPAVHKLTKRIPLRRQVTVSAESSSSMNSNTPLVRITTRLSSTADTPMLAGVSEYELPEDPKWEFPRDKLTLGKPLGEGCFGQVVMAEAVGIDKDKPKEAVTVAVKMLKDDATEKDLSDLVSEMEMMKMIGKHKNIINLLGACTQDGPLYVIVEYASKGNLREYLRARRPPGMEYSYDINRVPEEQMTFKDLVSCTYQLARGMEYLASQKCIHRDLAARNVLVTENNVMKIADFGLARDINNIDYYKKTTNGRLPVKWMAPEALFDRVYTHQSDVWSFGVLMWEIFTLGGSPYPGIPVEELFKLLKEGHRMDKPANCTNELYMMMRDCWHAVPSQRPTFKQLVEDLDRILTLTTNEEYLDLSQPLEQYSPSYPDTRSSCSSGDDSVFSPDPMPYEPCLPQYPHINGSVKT
Procedure: as §1, with “μL, FGFR2” for “μL, KDR”, “and 0.4” for “and 3”, “for 60” for “for 120”, “in” for “in RFU”

FGFR3 (h) = FGFR3 (h) (Homo sapiens, UniProt P22607); assay: FGFR3 (enzymatic assay), TR-FRET; conditions: 25 μM ATP; read-out: FGFR3 pIC50 (converted)
FGFR3 (h), sequence (P22607 23-806): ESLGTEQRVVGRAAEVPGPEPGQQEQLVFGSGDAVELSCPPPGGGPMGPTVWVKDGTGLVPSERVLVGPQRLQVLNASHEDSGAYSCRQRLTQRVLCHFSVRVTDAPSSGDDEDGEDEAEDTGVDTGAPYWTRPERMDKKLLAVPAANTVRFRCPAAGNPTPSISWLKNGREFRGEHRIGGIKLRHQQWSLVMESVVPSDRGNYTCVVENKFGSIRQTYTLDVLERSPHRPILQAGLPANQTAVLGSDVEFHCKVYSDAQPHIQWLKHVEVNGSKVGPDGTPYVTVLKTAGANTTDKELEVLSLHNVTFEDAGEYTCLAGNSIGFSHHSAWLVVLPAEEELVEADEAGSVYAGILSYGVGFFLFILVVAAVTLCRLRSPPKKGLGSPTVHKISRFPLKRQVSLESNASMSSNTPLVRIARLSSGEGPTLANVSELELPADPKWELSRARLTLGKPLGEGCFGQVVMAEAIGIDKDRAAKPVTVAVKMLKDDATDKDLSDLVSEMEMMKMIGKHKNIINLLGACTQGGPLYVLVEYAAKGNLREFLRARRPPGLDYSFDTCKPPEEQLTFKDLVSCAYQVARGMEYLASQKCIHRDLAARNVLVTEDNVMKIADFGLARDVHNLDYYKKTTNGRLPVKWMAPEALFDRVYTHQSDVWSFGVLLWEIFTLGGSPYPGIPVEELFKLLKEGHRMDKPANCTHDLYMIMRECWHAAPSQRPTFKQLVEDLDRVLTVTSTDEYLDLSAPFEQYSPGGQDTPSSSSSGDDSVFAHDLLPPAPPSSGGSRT
Procedure: as §1, with “μL, FGFR3” for “μL, KDR”, “(h) (40” for “(h) (150”, “and 25” for “and 3”, “for 60” for “for 120”

FGFR1 (h) = FGFR1 (h) (Homo sapiens, UniProt P11362); assay: FGFR1 (enzymatic assay), TR-FRET; conditions: 5 μM ATP; read-out: FGFR1 pIC50 (converted)
FGFR1 (h), sequence (P11362 22-822): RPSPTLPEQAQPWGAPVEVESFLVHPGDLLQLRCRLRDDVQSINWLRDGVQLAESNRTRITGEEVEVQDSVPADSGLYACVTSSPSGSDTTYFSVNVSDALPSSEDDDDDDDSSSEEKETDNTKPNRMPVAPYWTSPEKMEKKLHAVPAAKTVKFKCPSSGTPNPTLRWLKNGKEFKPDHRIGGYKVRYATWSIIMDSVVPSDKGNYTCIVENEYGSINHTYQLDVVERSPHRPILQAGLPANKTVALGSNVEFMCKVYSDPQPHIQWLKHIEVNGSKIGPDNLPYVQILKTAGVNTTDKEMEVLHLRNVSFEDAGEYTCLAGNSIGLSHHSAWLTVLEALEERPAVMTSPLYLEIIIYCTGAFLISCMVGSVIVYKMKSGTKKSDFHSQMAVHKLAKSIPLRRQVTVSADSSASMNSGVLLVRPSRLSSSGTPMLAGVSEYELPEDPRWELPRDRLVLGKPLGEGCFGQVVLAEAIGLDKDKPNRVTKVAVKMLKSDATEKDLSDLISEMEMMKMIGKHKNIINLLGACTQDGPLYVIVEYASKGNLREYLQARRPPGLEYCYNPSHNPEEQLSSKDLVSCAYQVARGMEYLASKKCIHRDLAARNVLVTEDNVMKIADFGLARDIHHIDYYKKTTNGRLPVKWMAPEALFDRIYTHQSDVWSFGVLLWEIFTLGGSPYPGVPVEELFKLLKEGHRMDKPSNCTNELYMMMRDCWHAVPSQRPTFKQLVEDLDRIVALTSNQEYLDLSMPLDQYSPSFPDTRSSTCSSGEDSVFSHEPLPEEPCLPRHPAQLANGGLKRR
Procedure: as §1, with “μL, FGFR1” for “μL, KDR”, “(h) (25” for “(h) (150”, “and 5” for “and 3”, “for 60” for “for 120”

FGFR4 (h) = FGFR4 (h) (Homo sapiens, UniProt P22455); assay: FGFR4 (enzymatic assay), TR-FRET; conditions: 5 μM ATP; for IC50: read-out: FGFR4 pIC50 (converted)
FGFR4 (h), sequence (P22455 22-802): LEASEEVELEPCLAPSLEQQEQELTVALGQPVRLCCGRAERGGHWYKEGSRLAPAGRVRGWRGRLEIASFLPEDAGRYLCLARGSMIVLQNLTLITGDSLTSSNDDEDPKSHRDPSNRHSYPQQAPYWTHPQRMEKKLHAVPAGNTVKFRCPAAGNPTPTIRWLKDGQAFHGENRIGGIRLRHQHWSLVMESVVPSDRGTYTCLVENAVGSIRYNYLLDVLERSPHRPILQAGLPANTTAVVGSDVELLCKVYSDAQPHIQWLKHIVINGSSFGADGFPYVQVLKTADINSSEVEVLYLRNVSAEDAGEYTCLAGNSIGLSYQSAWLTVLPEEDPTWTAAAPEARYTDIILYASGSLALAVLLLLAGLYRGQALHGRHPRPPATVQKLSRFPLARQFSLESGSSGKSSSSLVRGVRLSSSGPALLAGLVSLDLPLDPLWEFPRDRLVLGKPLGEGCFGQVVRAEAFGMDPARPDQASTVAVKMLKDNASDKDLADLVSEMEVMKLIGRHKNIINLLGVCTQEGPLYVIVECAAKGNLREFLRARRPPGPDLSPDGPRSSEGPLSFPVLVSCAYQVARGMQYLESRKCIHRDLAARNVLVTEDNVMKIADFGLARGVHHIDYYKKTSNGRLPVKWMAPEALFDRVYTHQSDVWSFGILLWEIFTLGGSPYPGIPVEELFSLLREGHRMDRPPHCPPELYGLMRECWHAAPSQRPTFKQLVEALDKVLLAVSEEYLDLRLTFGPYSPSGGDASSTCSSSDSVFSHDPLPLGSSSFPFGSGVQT
Procedure: as §1, with “μL, FGFR4” for “μL, KDR”, “(h) (60” for “(h) (150”, “and 5” for “and 3”, “for 60” for “for 120”

KDR (h) (VEGFR2), sequence (P35968 20-1356): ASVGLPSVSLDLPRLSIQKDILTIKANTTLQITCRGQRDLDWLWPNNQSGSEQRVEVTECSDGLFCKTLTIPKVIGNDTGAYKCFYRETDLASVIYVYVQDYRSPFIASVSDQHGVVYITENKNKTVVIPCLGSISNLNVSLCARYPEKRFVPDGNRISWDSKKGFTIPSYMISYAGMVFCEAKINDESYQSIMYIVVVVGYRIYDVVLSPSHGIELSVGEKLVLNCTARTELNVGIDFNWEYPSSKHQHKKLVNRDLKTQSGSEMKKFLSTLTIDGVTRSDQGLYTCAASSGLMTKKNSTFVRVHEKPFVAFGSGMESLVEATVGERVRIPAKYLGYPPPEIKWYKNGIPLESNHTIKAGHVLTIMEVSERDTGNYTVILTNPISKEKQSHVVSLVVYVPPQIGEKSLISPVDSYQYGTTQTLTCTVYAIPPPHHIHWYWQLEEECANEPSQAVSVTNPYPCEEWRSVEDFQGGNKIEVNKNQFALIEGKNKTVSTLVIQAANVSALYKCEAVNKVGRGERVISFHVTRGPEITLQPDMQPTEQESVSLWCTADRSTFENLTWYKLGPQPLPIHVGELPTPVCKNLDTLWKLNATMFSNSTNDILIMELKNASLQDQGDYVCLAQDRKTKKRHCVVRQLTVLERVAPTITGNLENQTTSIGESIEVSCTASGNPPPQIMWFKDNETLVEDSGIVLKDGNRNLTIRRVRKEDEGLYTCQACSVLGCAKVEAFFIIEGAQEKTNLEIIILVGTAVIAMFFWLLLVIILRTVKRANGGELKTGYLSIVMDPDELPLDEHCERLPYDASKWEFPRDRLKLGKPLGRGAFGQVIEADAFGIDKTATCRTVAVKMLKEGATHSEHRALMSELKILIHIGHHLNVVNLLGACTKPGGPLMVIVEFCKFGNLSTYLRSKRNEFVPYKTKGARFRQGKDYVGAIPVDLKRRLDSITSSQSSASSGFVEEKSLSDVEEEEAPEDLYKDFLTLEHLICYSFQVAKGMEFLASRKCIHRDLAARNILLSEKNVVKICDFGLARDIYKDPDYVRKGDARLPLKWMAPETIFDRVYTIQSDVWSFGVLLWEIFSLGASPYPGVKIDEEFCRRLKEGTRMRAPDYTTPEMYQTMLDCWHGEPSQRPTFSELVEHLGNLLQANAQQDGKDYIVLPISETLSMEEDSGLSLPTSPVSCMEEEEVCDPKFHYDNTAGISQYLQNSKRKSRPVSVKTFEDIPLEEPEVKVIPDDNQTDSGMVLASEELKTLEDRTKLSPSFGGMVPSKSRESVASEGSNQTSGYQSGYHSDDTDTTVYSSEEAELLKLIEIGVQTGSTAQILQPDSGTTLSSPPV

| Structure (SMILES) | VEGFR2 (KDR) pIC50 (KDR (h) (VEGFR2)) | IC50 (FGFR2 (h)) [nM] | IC50 (FGFR3 (h)) [nM] | IC50 (FGFR1 (h)) [nM] | FGFR4 pIC50 (FGFR4 (h)) | IC50 (KDR (h) (VEGFR2)) [nM] | IC50 (FGFR4 (h)) [nM] |
| --- | --- | --- | --- | --- | --- | --- | --- |
| COc1cc(OC)cc(/C(=C\C#N)c2ccc3ncc(-c4cnn(C)c4)nc3c2)c1 [Compound 4] | – | 102 | 36.3 | 53.7 | – | 661 | 363 |
| COc1cc(OC)cc(/C(=C/C#N)c2ccc3ncc(-c4cnn(C)c4)nc3c2)c1 [Compound 3] | – | 5130 | 2190 | 2290 | – | 3980 | > 10000 |

Results, then the molecule that gave them:

| VEGFR2 (KDR) pIC50 (KDR (h) (VEGFR2)) | IC50 (FGFR2 (h)) [nM] | IC50 (FGFR3 (h)) [nM] | IC50 (FGFR1 (h)) [nM] | FGFR4 pIC50 (FGFR4 (h)) | IC50 (KDR (h) (VEGFR2)) [nM] | IC50 (FGFR4 (h)) [nM] | Structure (SMILES) |
| --- | --- | --- | --- | --- | --- | --- | --- |
| <6 | > 1000 | > 1000 | 776 | <6 | – | – | CNCC(O)(c1cc(OC)cc(OC)c1)c1ccc2ncc(-c3cnn(C)c3)nc2c1.Cl (single isomer, unassigned) [Compound 38] |
| – | 10.7 | 8.71 | 7.76 | – | 389 | 126 | COc1cc(OC)cc(/C(=C\CNC(C)C)c2ccc3ncc(-c4cnn(C)c4)nc3c2)c1 [Compound 8, {(Z)-3-(3,5-Dimethoxy-phenyl)-3-[3-(1-methyl-1H-pyrazol-4-yl)-quinoxalin-6-yl]-allyl}-isopropyl-amine] |
| <6 | > 1000 | > 1000 | > 1000 | <6 | – | – | COc1cc(OC)cc(C(NCCNC(C)C)c2ccc3ncc(-c4cnn(C)c4)nc3c2)c1.Cl (single isomer, unassigned) [Compound 39] |
